Test results reported in article PMC12880750, “Mechanistic insights and in vivo HIV suppression by the BRD4-targeting small molecule ZL0580” (PLOS Pathogens, 2026).

How the values were obtained:
[1] = system: WT J-Lat cells (Clone […]); test: RT-qPCR validation of differentially expressed genes, WT J-Lat cells; format: cell-based, human; settings: 5 μM, 24 h, normalized to GAPDH
Method: To validate the RNA-Seq results, RT-qPCR analysis was performed on a subset of differentially expressed genes (DEGs) (Fig 3E). Eight representative DEGs were selected based on statistical significance (adjusted p values) and their involvement in key pathways identified by GSEA, including lipid metabolism/cholesterol biosynthesis (HMGCS1, SQLE, DHCR7) and cytokine signaling (ITK and DUSP8). Relative gene expression levels were normalized to the housekeeping gene GAPDH. […] As an additional control, RT-qPCR was also performed on RNA isolated from BRD4-knockout (KO) J-Lat cells that received the same treatments. The generation and characterization of BRD4-KO J-Lat cells were described previously.
RT-qPCR was performed as previously reported.

HIV-1 JR-CSF [2] = test: HIV suppression in HIV-infected humanized mice (plasma viral load); format: in vivo, CD34+ Hu-NSG mice (Hu-mice)
Method: Next, at week 0, all12 Hu-mice were intravenously inoculated with a single dose of HIV-1 JR-CSF (equivalent to 10 ng HIV p24 antigen per animal) (Fig 6A). Systemic HIV infection was confirmed in 11 out of the 12 mice at weeks 2 and 3 after HIV inoculation, based on the detection of plasma viral RNAs by a single-step RT-qPCR (Fig 6B-6C). Systemic HIV infection in the Hu-mice was also confirmed by ELISA quantification of plasma HIV p24 antigens at weeks 2 and 3 after HIV inoculation (Fig F in S1 Text). The 11 Hu-mice with successful HIV infection were then randomized into four treatment groups at week 3: empty vehicle control (EV) (n = 2), ART (n = 3), ZL0580 (n = 3), and ART + ZL0580 (n = 3). Drug formulations included: ART (Raltegravir 1.2 mg/mouse, Emtricitabine 3.2 mg/mouse, Tenofovir 3.2 mg/mouse), ZL0580 (3.8 mg/mouse), and a combination of both ART + ZL0580 (same concentration of individual compounds). All drugs were formulated in the buffer consisting of 10% DMSO, 10% Solutol HS 15, and 80% HP-β-CD (20%, w/v). The empty vehicle (EV) group received only the formulation buffer. Treatment regimens were initiated at week 3 and administered daily by intraperitoneal injection (Fig 6A). Plasma viral loads were closely monitored during the treatments.
All humanized mice used in this study weighed approximately 20 grams, and drug dosages were calculated accordingly. The following compounds were administered to mice daily: Raltegravir (Ral) at 60mg/kg (1.2 mg/mouse), Emtricitabine (Emt) at 160mg/kg (3.2 mg/mouse), Tenofovir (Ten) at 160mg/kg (3.2 mg/mouse), and ZL0580 at […] (3.8 mg/mouse). ART drugs were purchased from MedChemExpress. ZL0580 was synthesized in-house as previously reported. All compounds were dissolved in a formulation vehicle composed of 10% DMSO, 10% Solutol HS 15, and 80% hydroxypropyl-β-cyclodextrin (HP-β-CD, 20% w/v). Compounds were administered via intraperitoneal injection daily.
Mice were 16-week-old at the initiation of the experiments. All mice received human CD34 + stem cells of a single donor and human immune cell reconstitution was confirmed for all mice. A total of 12 Hu-mice were initially included in the study with each tagged and assigned with a unique ID. At week 0, all Hu-mice were intravenously (IV) infected with HIV-1 JR-CSF at a single dose of 10ng HIV p24 equivalent virus per animal. Blood/plasma viral loads were monitored and quantified weekly by a single-step RT-qPCR until systemic HIV infection was established. […] At week 3, the remaining 11 Hu-mice were randomized into four groups for subsequent treatments: Empty Vehicle (EV) (n = 2), ART (n = 3), ZL0580 (n = 3), and ART + ZL0580 (n = 3). The control mice received a mixture of DMSO, Solutol HS 15, and hydroxypropyl-β-cyclodextrin (HP-β-CD, 20% w/v), which was considered the empty vehicle control (EV). ART and ZL0580 compounds were administered to mice via intraperitoneal injection daily for four weeks (from week 3 to week 7). […] Plasma samples were collected from mice either weekly or biweekly for quantification of viral loads (RNA copies). Blood cells were also collected at weeks 7 and 13 for quantification of cell-associated HIV DNA in blood. Mouse weights were monitored after treatment.
Viral RNA was isolated from plasma samples using the QIAamp Viral RNA Mini Kit (Qiagen) according to the manufacturer’s instructions. Quantification of viral RNA was performed using the PrimeTime One-Step RT-qPCR Master Mix (IDT) on a CFX Connect Real-Time PCR System (Bio-Rad). […]

HIV-1 JR-CSF [3] = test: Cell-associated HIV DNA in blood cells of Hu-mice; format: in vivo, CD34+ Hu-NSG mice (Hu-mice); settings: qPCR, per 10^7 PB cells
Excerpt: To assess whether ZL0580 or ART affects HIV DNA levels, we quantified cell-associated HIV DNA in the peripheral blood of Hu-mice after treatments. Blood cells collected at weeks 7, 11 and 13 were subjected to DNA extraction and quantification of HIV DNA by qPCR. […] By week 13, HIV DNA levels also remained similar across all groups (Fig 7C).
Mice were 16-week-old at the initiation of the experiments. All mice received human CD34 + stem cells of a single donor and human immune cell reconstitution was confirmed for all mice. A total of 12 Hu-mice were initially included in the study with each tagged and assigned with a unique ID. […] Blood/plasma viral loads were monitored and quantified weekly by a single-step RT-qPCR until systemic HIV infection was established. […] Plasma samples were collected from mice either weekly or biweekly for quantification of viral loads (RNA copies). Blood cells were also collected at weeks 7 and 13 for quantification of cell-associated HIV DNA in blood. Mouse weights were monitored after treatment.
Quantification of cell-associated HIV DNA in blood cells was performed by qPCR as previously described with modifications. Blood cells were counted and subjected to DNA extraction using the Qiagen QIAamp DNA Blood Mini Kit (QIAGEN). qPCR primers and probe: Forward: 5′-[…]-3′, Reverse: 5′-[…]-3′, Probe: 5’-/5HEX/[…]/ZEN/GCC […]/3IABkFQ. […]

BRD4 BD1 = system: BRD4 BD1; set-up: method as in PMID 31329163; settings: in vitro binding affinity; cited from earlier work

What does the source list for `O=C(Nc1ccc(C(F)(F)F)cc1)Nc1ccc(S(=O)(=O)N2CCC[C@H]2C(=O)Nc2ccccc2)cc1` [ZL0580]?
Expression of HMGCS1, SQLE, DHCR7, ASS1, ITK, DUSP8 relative to NC [1]: upregulated; Expression of KLF10 and WDR52 relative to NC [1]: downregulated; Delay of viral rebound following TI compared to ART alone (HIV-1 JR-CSF [2]; ZL0580 monotherapy): ~ 2 weeks; Plasma viral loads at week 5 (HIV-1 JR-CSF [2]; after two weeks of daily i.p. treatment, ZL0580 3.8 mg/mouse, ART Raltegravir 1.2, Emtricitabine 3.2, Tenofovir 3.2 mg/mouse): nearly undetectable levels; Plasma viral copies at week 7 (mean ± SEM) (HIV-1 JR-CSF [2]; end of 4 weeks daily i.p. treatment, n = 3 per group): 105 ± 28 HIV RNA copies/ml; Area under the curve (AUC) of viral loads after TI, weeks 7 to 15, compared to EV control (HIV-1 JR-CSF [2]; one-way ANOVA): significantly suppressed viral rebounds; Plasma mean viral copies at week 9 (HIV-1 JR-CSF [2]; two weeks post treatment interruption (TI)): undetectable; HIV DNA copies in peripheral blood cells at week 7, among groups incl. EV control (HIV-1 JR-CSF [3]): no significant differences; IC50 (BRD4 BD1): 163 nM
